Source: patent US20250250227A1, “AMINO LIPID COMPOUND, PREPARATION METHOD THEREFOR, COMPOSITION THEREOF AND USE THEREOF” (SHENZHEN SHENXIN BIOTECHNOLOGY CO., LTD., priority 2022, published 2025)

Columns and labels:
Female BALB/c mice = test: Performance evaluation of in vivo delivery of Fluc mRNA lipid nanoparticle (IVIS, body and organs); details: Fluc mRNA LNP; for Liver (fluorescence expression intensity) / Spleen (fluorescence expression intensity): 75 μL IV; for Liver (fluorescence expression intensity) / Spleen (fluorescence expression intensity) / Total flux (fluorescence expression intensity) / (Spleen/Total Flux) * 100%: 6 hours after injection; for Liver (fluorescence expression intensity) / Spleen (fluorescence expression intensity) / Total flux (fluorescence expression intensity): IVIS; for Total flux (fluorescence expression intensity): 75 μL tail vein injection (IV); for (Spleen/Total Flux) * 100% / Multiple of spleen delivery/total delivery to amino lipid compound 118: IV; for Multiple of spleen delivery/total delivery to amino lipid compound 118: relative to amino lipid compound 118
Procedure: Animal preparation: Female BALB/c mice of 6-8 weeks old were selected and raised in an SPF grade breeding room. Animal testing was conducted in strict accordance with the guidelines of national health institutions and animal ethics requirements.
In vivo Delivery: prior to injection of the test LNP formulations, the LNP formulations were gently and repeatedly inverted to thoroughly mix the formulation samples. A corresponding amount of the formulation samples were aspirated with a 1 ml insulin syringe, and the LNP formulations were injected by tail vein injection (IV), with 3 mice in duplicate per formulation. Each mouse was injected with 75 μL of the luciferase mRNA (Fluc mRNA)-encapsulating lipid nanoparticle formulation prepared in Experimental Example 1.
6 hours after injection of LNP formulations, mice were injected with 200 μL D-Luciferin luciferase developing substrate (Catalog No. 122799; Manufacturer: Perkin Elmer). After the substrate was injected, the mice were anesthetized with isoflurane inhalation, and the injection time of luciferase developing substrate was recorded.
The encapsulation efficiency of the lipid nanoparticle encapsulating luciferase mRNA (Fluc mRNA) with a representative amino lipid compound and the fluorescence expression intensity induced by the same are shown in Table 4, with the amino lipid compound 118 as a control.
The multiple of spleen delivery/total delivery of fluorescence expression intensity induced by lipid nanoparticle encapsulating luciferase mRNA (Fluc mRNA) with a representative amino lipid compound to amino lipid compound 118 is shown in Table 5.

[1] = Preparation and characterisation of mRNA-encapsulating lipid nanoparticle (encapsulation efficiency, particle size); format: physicochemical; details: LNP encapsulating Fluc mRNA; Lipid:DSPC:CHO-HP:M-DMG-2000 48:10:40.5:1.5
Procedure: A specified amount of Fluc mRNA stock solution, 0.2 M sodium acetate buffer, and DEPC water were added to a container, and mixed well to obtain a water phase;
The amino lipid compound of the present disclosure, a helper lipid, a structural lipid, and a PEG-lipid were separately dissolved in absolute ethanol to prepare respective solutions at concentrations of 20 mg/mL, 10 mg/mL, 20 mg/mL, and 25 mg/mL, respectively. The above four solutions were pipetted at a molar ratio of Lipid:DSPC:CHO—HP:M-DMG-2000 of 48:10:40.5:1.5, and mixed well to prepare an alcohol phase. • (2) Encapsulation: The water phase and the alcohol phase were injected into a microfluidic chip at a flow rate of water phase: alcohol phase=12 mL/min: 4 mL/min by using a microfluidic preparation instrument (MPE-L2), and encapsulation was carried out at a flow rate of water phase: alcohol phase=9 mL/min: 3 mL/min to obtain mRNA-encapsulating lipid nanoparticle (mRNA-LNP). • (3) Dialysis: The product of step (2) was loaded in a dialysis bag and placed in a Tris Buffer-8% sucrose solution for replacement to remove ingredients such as residual ethanol, unassembled lipids. Dialysis was conducted for 2 h with magnetic stirring at room temperature and under protection from light (dialysate was replaced every 1 hour). • (4) The product of step (3) was sterilized by passing through a […] microporous membrane, and then packaged.
Lipid nanoparticle formulations encapsulating Fluc mRNA were prepared, with a concentration of Fluc mRNA of 0.2 g/L, a mass ratio of Fluc mRNA to Lipid of 1:10, a particle size of 80-130 nm, and a encapsulation efficiency of 85% or higher.
The encapsulation efficiency of the lipid nanoparticle encapsulating luciferase mRNA (Fluc mRNA) with a representative amino lipid compound and the fluorescence expression intensity induced by the same are shown in Table 4, with the amino lipid compound 118 as a control. […]

Compound	Liver (fluorescence expression intensity) (Female BALB/c mice)	Spleen (fluorescence expression intensity) (Female BALB/c mice)	Total flux (fluorescence expression intensity) (Female BALB/c mice)	(Spleen/Total Flux) * 100% (Female BALB/c mice)	Multiple of spleen delivery/total delivery to amino lipid compound 118 (Female BALB/c mice)	Encapsulation efficiency [1]
CCCCCCC(CCCCCC)OC(=O)CCCCCCCCC(CCCCCCCCC(=O)OC(CCCCCC)CCCCCC)OC(=O)N(CCCC(=O)OC(C)CCC)CCCN(C)C (stereo not drawn) [Compound 309]	4.90E+07	3.44E+06	3.69E+08	0.93%	2.74	91.62%
CCCCCCCOC(=O)CCN(CCCN(C)C)C(=O)OC(CCCCCCCCC(=O)OCC(CCCC)CCCCCC)CCCCCCCCC(=O)OCC(CCCC)CCCCCC (stereo not drawn) [Compound 373]	9.15E+07	6.93E+06	4.77E+08	1.45%	4.27	92.01%
CCCCCCC(CCCCCC)OC(=O)CCCCCCCCC(CCCCCCCCC(=O)OC(CCCCCC)CCCCCC)OC(=O)N(CCCCC(=O)OC(C)CCC)CCCN(C)C (stereo not drawn) [Compound 303]	8.58E+07	5.56E+06	6.41E+08	0.87%	2.55	93.23%
CC/C=C\COC(=O)CCCN(CCCN(C)C)C(=O)OC(CCCCCCCCC(=O)OC(CCCCCC)CCCCCC)CCCCCCCCC(=O)OC(CCCCCC)CCCCCC [Compound 275]	1.23E+08	8.84E+06	8.16E+08	1.08%	3.19	90.61%
CCCCCCC(CCCCCC)OC(=O)CCCCCCCCC(CCCCCCCCC(=O)OC(CCCCCC)CCCCCC)OC(=O)N(CCCN(C)C)CCC(=O)OC(C)CCCC (stereo not drawn) [Compound 320]	1.13E+08	4.97E+06	7.04E+08	0.71%	2.08	92.13%
CCC/C=C\COC(=O)CCCN(CCCN(C)C)C(=O)OC(CCCCCCCCC(=O)OC(CCCCCC)CCCCCC)CCCCCCCCC(=O)OC(CCCCCC)CCCCCC [Compound 276]	1.43E+08	4.67E+06	7.70E+08	0.61%	1.78	88.92%
CCCCCCC(CCCCCC)OC(=O)CCCCCCCCC(CCCCCCCCC(=O)OC(CCCCCC)CCCCCC)OC(=O)N(CCCCC(=O)OC(C)CCCC)CCCN(C)C (stereo not drawn) [Compound 305]	9.19E+07	7.03E+06	6.71E+08	1.05%	3.08	90.70%
CCCCCCC(CCCCCC)OC(=O)CCCCCCCCC(CCCCCCCCC(=O)OC(CCCCCC)CCCCCC)OC(=O)N(CCCCN1CCCC1)CC(=O)OCC [Compound 368]	6.14E+07	1.25E+07	3.97E+08	3.15%	9.26	87.51%
CCCCCCC(CCCCCC)OC(=O)CCCCCCCCC(CCCCCCCCC(=O)OC(CCCCCC)CCCCCC)OC(=O)N(CCCCCC(=O)OCC)CCCN1CCCC1 [Compound 365]	9.03E+07	4.45E+06	6.73E+08	0.66%	1.94	92.45%
CCCCCCC(CCCCCC)OC(=O)CCCCCCCCC(CCCCCCCCC(=O)OC(CCCCCC)CCCCCC)OC(=O)N(CCCCC(=O)OC(CC)CCC)CCCN(C)C (stereo not drawn) [Compound 306]	4.13E+07	5.44E+06	2.45E+08	2.22%	6.53	91.92%
CCCCCCC(CCCCCC)OC(=O)CCCCCCCCC(CCCCCCCCC(=O)OC(CCCCCC)CCCCCC)OC(=O)N(CCCN(C)C)CCC(=O)OC(CC)CCC (stereo not drawn) [Compound 321]	1.27E+08	1.47E+07	7.21E+08	2.04%	6.00	93.85%
CCCCCCC(CCCCCC)OC(=O)CCCCCCCCC(CCCCCCCCC(=O)OC(CCCCCC)CCCCCC)OC(=O)N(CCCCCC(=O)OC(C)CC)CCCN(C)C (stereo not drawn) [Compound 298]	3.32E+07	2.13E+06	2.61E+08	0.82%	2.40	92.85%
CCCCCCOC(=O)CCN(CCCN(C)C)C(=O)OC(CCCCCCCCC(=O)OCC(CCCC)CCCCCC)CCCCCCCCC(=O)OCC(CCCC)CCCCCC (stereo not drawn) [Compound 372]	1.67E+08	8.59E+06	5.43E+08	1.58%	4.65	92.17%
